Reference: ChEMBL document CHEMBL3137667, “[Drug-induced liver injury; fourteenth updated edition of the bibliographic database of liver injuries and related drugs]” (Gastroenterol Clin Biol, 2004)

What was measured:
[1] = human
[2] = human; remark: listed apart in the source
[3] = human; remark: listed apart in the source
[4] = human; remark: listed apart in the source
[5] = human; remark: listed apart in the source
[6] = human, serum, 4383 h
[7] = human, serum
[8] = human; remark: listed apart in the source
[9] = Times to onset, minimal and maximal, observed in the indexed observations. [column 'DELAI' in source]; details: human
[10] = Highest frequency of acute liver toxicity observed during clinical trials, expressed as a percentage. [column '% AIGUE' in source]; details: human
[11] = human; remark: listed apart in the source
[12] = human; remark: listed apart in the source
[13] = human; remark: listed apart in the source
[14] = human, serum; remark: listed apart in the source
[15] = Highest frequency of moderate liver toxicity observed during clinical trials, expressed as a percentage. [column '% BIOL' in source]; details: human
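For Hepatotoxicity (association with vascular disease) in this document: count of indexed literature references reporting vascular liver injury in humans, e.g. peliosis hepatitis, hepatic veno-occlusive disease or Budd-Chiari syndrome.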
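For Hepatotoxicity (benign tumour) in this document: value is a count of indexed literature references citing a benign tumour confirmed by histopathology.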
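For Hepatotoxicity (choleostasis) in this document: human cholestatic liver injury, shown by histopathology or by peak ALT or AST elevation over alkaline phosphatase ratio below 2, value counts indexed literature reports.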
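For Hepatotoxicity (chronic liver disease) in this document: chronic liver injury confirmed by histopathology or persistently raised serum aminotransferase activity beyond 6 months, value given as the count of indexed literature references.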
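For Hepatotoxicity (cirrhosis) in this document: value is a count of indexed literature references reporting cirrhosis confirmed by histopathology.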
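For Hepatotoxicity (cytolytic) in this document: human cytolytic liver injury, shown by histopathology or by a ratio above 5 of peak ALT or AST elevation to alkaline phosphatase elevation, value counts indexed references.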
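For Hepatotoxicity (granulomatous hepatitis) in this document: value is a count of indexed literature references reporting granulomatous liver disease confirmed by histopathology.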
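For Hepatotoxicity (malignant tumour) in this document: malignant tumour confirmed by histopathology, value gives the count of indexed literature references reporting it.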
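For Hepatotoxicity (severe hepatitis) in this document: human clinical data: severe hepatitis, meaning potentially life-threatening liver failure or clinically observed cases, the value counts how many indexed literature references report it.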
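For Hepatotoxicity (steatosis) in this document: steatosis confirmed by histopathology, value is the count of indexed references.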

CC(=O)[C@H]1CC[C@H]2[C@@H]3CC[C@@H]4C[C@H](O)CC[C@]4(C)[C@H]3CC[C@]12C [ELTANOLONE]
Hepatotoxicity (benign tumour) [1]: 0
Hepatotoxicity (severe hepatitis) [2]: 0
Hepatotoxicity (choleostasis) [3]: 0
Hepatotoxicity (cirrhosis) [4]: 0
Hepatotoxicity (association with vascular disease) [5]: 0
Hepatotoxicity (chronic liver disease) [6]: 0
Hepatotoxicity (acute) [7]: 0
Hepatotoxicity (granulomatous hepatitis) [8]: 0
Hepatotoxicity (time to onset) [9]: 1 days
Hepatotoxicity (acute) [10]: 0%
Hepatotoxicity (malignant tumour) [11]: 0
Hepatotoxicity (steatosis) [12]: 0
Hepatotoxicity (cytolytic) [13]: 0
Hepatotoxicity (moderate) [14]: 2
Hepatotoxicity (moderate) [15]: 12.6%

CCn1cc(C(=O)O)c(=O)c2cc(F)c(N3CCNCC3)nc21 [ENOXACIN]
Hepatotoxicity (benign tumour) [1]: 0
Hepatotoxicity (severe hepatitis) [2]: 0
Hepatotoxicity (choleostasis) [3]: 1
Hepatotoxicity (cirrhosis) [4]: 0
Hepatotoxicity (association with vascular disease) [5]: 0
Hepatotoxicity (chronic liver disease) [6]: 0
Hepatotoxicity (acute) [7]: 1
Hepatotoxicity (granulomatous hepatitis) [8]: 0
Hepatotoxicity (time to onset) [9]: 9 days
Hepatotoxicity (acute) [10]: 0%
Hepatotoxicity (malignant tumour) [11]: 0
Hepatotoxicity (steatosis) [12]: 0
Hepatotoxicity (cytolytic) [13]: 0
Hepatotoxicity (moderate) [14]: 6
Hepatotoxicity (moderate) [15]: 3.3%

COc1cc2oc(=O)c(C)c(C)c2cc1OCCCN1CCN(c2ccccc2OC)CC1 [ENSACULIN]
Hepatotoxicity (benign tumour) [1]: 0
Hepatotoxicity (severe hepatitis) [2]: 0
Hepatotoxicity (choleostasis) [3]: 0
Hepatotoxicity (cirrhosis) [4]: 0
Hepatotoxicity (association with vascular disease) [5]: 0
Hepatotoxicity (chronic liver disease) [6]: 0
Hepatotoxicity (acute) [7]: 0
Hepatotoxicity (granulomatous hepatitis) [8]: 0
Hepatotoxicity (time to onset) [9]: 2 weeks
Hepatotoxicity (acute) [10]: 0%
Hepatotoxicity (malignant tumour) [11]: 0
Hepatotoxicity (steatosis) [12]: 0
Hepatotoxicity (cytolytic) [13]: 0
Hepatotoxicity (moderate) [14]: 1
Hepatotoxicity (moderate) [15]: 8.3%

CCN(CC)C(=O)/C(C#N)=C/c1cc(O)c(O)c([N+](=O)[O-])c1 [ENTACAPONE]
Hepatotoxicity (benign tumour) [1]: 0
Hepatotoxicity (severe hepatitis) [2]: 0
Hepatotoxicity (choleostasis) [3]: 2
Hepatotoxicity (cirrhosis) [4]: 0
Hepatotoxicity (association with vascular disease) [5]: 0
Hepatotoxicity (chronic liver disease) [6]: 0
Hepatotoxicity (acute) [7]: 2
Hepatotoxicity (granulomatous hepatitis) [8]: 0
Hepatotoxicity (time to onset) [9]: 2 weeks - 6 weeks
Hepatotoxicity (acute) [10]: 0%
Hepatotoxicity (malignant tumour) [11]: 0
Hepatotoxicity (steatosis) [12]: 0
Hepatotoxicity (cytolytic) [13]: 0
Hepatotoxicity (moderate) [14]: 1
Hepatotoxicity (moderate) [15]: 0%

CCC1(C)CC(=O)NC1=O (stereo not given) [ETHOSUXIMIDE]
Hepatotoxicity (benign tumour) [1]: 0
Hepatotoxicity (severe hepatitis) [2]: 0
Hepatotoxicity (choleostasis) [3]: 0
Hepatotoxicity (cirrhosis) [4]: 0
Hepatotoxicity (association with vascular disease) [5]: 0
Hepatotoxicity (chronic liver disease) [6]: 0
Hepatotoxicity (acute) [7]: 0
Hepatotoxicity (granulomatous hepatitis) [8]: 0
Hepatotoxicity (time to onset) [9]: 1 month
Hepatotoxicity (acute) [10]: 0%
Hepatotoxicity (malignant tumour) [11]: 0
Hepatotoxicity (steatosis) [12]: 0
Hepatotoxicity (cytolytic) [13]: 0
Hepatotoxicity (moderate) [14]: 2
Hepatotoxicity (moderate) [15]: 0%

CCNC1=Nc2ccc(Cl)cc2C(C)(c2ccccc2)O1 (stereo not given) [ETIFOXINE]
Hepatotoxicity (benign tumour) [1]: 0
Hepatotoxicity (severe hepatitis) [2]: 0
Hepatotoxicity (choleostasis) [3]: 0
Hepatotoxicity (cirrhosis) [4]: 0
Hepatotoxicity (association with vascular disease) [5]: 0
Hepatotoxicity (chronic liver disease) [6]: 0
Hepatotoxicity (acute) [7]: 1
Hepatotoxicity (granulomatous hepatitis) [8]: 0
Hepatotoxicity (time to onset) [9]: 11 days
Hepatotoxicity (acute) [10]: 0%
Hepatotoxicity (malignant tumour) [11]: 0
Hepatotoxicity (steatosis) [12]: 0
Hepatotoxicity (cytolytic) [13]: 1
Hepatotoxicity (moderate) [14]: 0
Hepatotoxicity (moderate) [15]: 0%

CCOC(=O)c1cncn1[C@H](C)c1ccccc1 [ETOMIDATE]
Hepatotoxicity (benign tumour) [1]: 0
Hepatotoxicity (severe hepatitis) ([2]; Liver): 0
Hepatotoxicity (choleostasis) [3]: 0
Hepatotoxicity (cirrhosis) [4]: 0
Hepatotoxicity (association with vascular disease) [5]: 0
Hepatotoxicity (chronic liver disease) [6]: 0
Hepatotoxicity (acute) [7]: 0
Hepatotoxicity (granulomatous hepatitis) [8]: 0
Hepatotoxicity (time to onset) [9]: 3 days - 5 days
Hepatotoxicity (acute) ([10]; Liver): 0%
Hepatotoxicity (malignant tumour) [11]: 0
Hepatotoxicity (steatosis) [12]: 0
Hepatotoxicity (cytolytic) [13]: 0
Hepatotoxicity (moderate) [14]: 1
Hepatotoxicity (moderate) ([15]; Liver): 5%

NC(=O)OCC(COC(N)=O)c1ccccc1 [FELBAMATE]
Hepatotoxicity (benign tumour) [1]: 0
Hepatotoxicity (severe hepatitis) [2]: 3
Hepatotoxicity (choleostasis) [3]: 0
Hepatotoxicity (cirrhosis) [4]: 0
Hepatotoxicity (association with vascular disease) [5]: 0
Hepatotoxicity (chronic liver disease) [6]: 0
Hepatotoxicity (acute) [7]: 4
Hepatotoxicity (granulomatous hepatitis) [8]: 0
Hepatotoxicity (time to onset) [9]: 13 days - 6 months
Hepatotoxicity (acute) [10]: 0%
Hepatotoxicity (malignant tumour) [11]: 0
Hepatotoxicity (steatosis) [12]: 0
Hepatotoxicity (cytolytic) [13]: 2
Hepatotoxicity (moderate) [14]: 4
Hepatotoxicity (moderate) [15]: 7.1%

COc1ccc(OC[C@H]2CN(C)CC[C@@H]2c2ccccc2)cc1 [FEMOXETINE]
Hepatotoxicity (benign tumour) [1]: 0
Hepatotoxicity (severe hepatitis) [2]: 1
Hepatotoxicity (choleostasis) [3]: 0
Hepatotoxicity (cirrhosis) [4]: 0
Hepatotoxicity (association with vascular disease) [5]: 0
Hepatotoxicity (chronic liver disease) [6]: 0
Hepatotoxicity (acute) [7]: 1
Hepatotoxicity (granulomatous hepatitis) [8]: 0
Hepatotoxicity (time to onset) [9]: 5 months
Hepatotoxicity (acute) [10]: 0%
Hepatotoxicity (malignant tumour) [11]: 0
Hepatotoxicity (steatosis) [12]: 0
Hepatotoxicity (cytolytic) [13]: 1
Hepatotoxicity (moderate) [14]: 0
Hepatotoxicity (moderate) [15]: 0%

CC1=C(/C=C/C(C)=C/C=C/C(C)=C/C(=O)Nc2ccc(O)cc2)C(C)(C)CCC1 [FENRETINIDE]
Hepatotoxicity (benign tumour) [1]: 0
Hepatotoxicity (severe hepatitis) [2]: 0
Hepatotoxicity (choleostasis) [3]: 0
Hepatotoxicity (cirrhosis) [4]: 0
Hepatotoxicity (association with vascular disease) [5]: 0
Hepatotoxicity (chronic liver disease) [6]: 0
Hepatotoxicity (acute) [7]: 0
Hepatotoxicity (granulomatous hepatitis) [8]: 0
Hepatotoxicity (time to onset) [9]: 1 week
Hepatotoxicity (acute) [10]: 0%
Hepatotoxicity (malignant tumour) [11]: 0
Hepatotoxicity (steatosis) [12]: 0
Hepatotoxicity (cytolytic) [13]: 0
Hepatotoxicity (moderate) [14]: 3
Hepatotoxicity (moderate) [15]: 12.8%

O=C(O)Cc1sc(-c2ccccc2)nc1-c1ccc(Cl)cc1 [FENTIAZAC]
Hepatotoxicity (benign tumour) [1]: 0
Hepatotoxicity (severe hepatitis) [2]: 0
Hepatotoxicity (choleostasis) [3]: 0
Hepatotoxicity (cirrhosis) [4]: 0
Hepatotoxicity (association with vascular disease) [5]: 0
Hepatotoxicity (chronic liver disease) [6]: 0
Hepatotoxicity (acute) [7]: 2
Hepatotoxicity (granulomatous hepatitis) [8]: 0
Hepatotoxicity (time to onset) [9]: 4 months - 5 months
Hepatotoxicity (acute) [10]: 6.1%
Hepatotoxicity (malignant tumour) [11]: 0
Hepatotoxicity (steatosis) [12]: 0
Hepatotoxicity (cytolytic) [13]: 1
Hepatotoxicity (moderate) [14]: 3
Hepatotoxicity (moderate) [15]: 35%

CC(C)=CCC1C(=O)N(c2ccccc2)N(c2ccccc2)C1=O [FEPRAZONE]
Hepatotoxicity (benign tumour) [1]: 0
Hepatotoxicity (severe hepatitis) [2]: 0
Hepatotoxicity (choleostasis) [3]: 2
Hepatotoxicity (cirrhosis) [4]: 0
Hepatotoxicity (association with vascular disease) [5]: 0
Hepatotoxicity (chronic liver disease) [6]: 0
Hepatotoxicity (acute) [7]: 2
Hepatotoxicity (granulomatous hepatitis) [8]: 1
Hepatotoxicity (time to onset) [9]: 2 weeks - 1 month
Hepatotoxicity (acute) [10]: 0%
Hepatotoxicity (malignant tumour) [11]: 0
Hepatotoxicity (steatosis) [12]: 0
Hepatotoxicity (cytolytic) [13]: 2
Hepatotoxicity (moderate) [14]: 1
Hepatotoxicity (moderate) [15]: 0%

O=C(COc1ccc(Cl)cc1)N1CCN(Cc2ccc3c(c2)OCO3)CC1 [FIPEXIDE]
Hepatotoxicity (benign tumour) [1]: 0
Hepatotoxicity (severe hepatitis) [2]: 1
Hepatotoxicity (choleostasis) [3]: 0
Hepatotoxicity (cirrhosis) [4]: 0
Hepatotoxicity (association with vascular disease) [5]: 0
Hepatotoxicity (chronic liver disease) [6]: 0
Hepatotoxicity (acute) [7]: 4
Hepatotoxicity (granulomatous hepatitis) [8]: 0
Hepatotoxicity (time to onset) [9]: 15 days - 3 months
Hepatotoxicity (acute) [10]: 0%
Hepatotoxicity (malignant tumour) [11]: 0
Hepatotoxicity (steatosis) [12]: 0
Hepatotoxicity (cytolytic) [13]: 3
Hepatotoxicity (moderate) [14]: 0
Hepatotoxicity (moderate) [15]: 0%

Cc1c(-c2ccccc2)oc2c(C(=O)OCCN3CCCCC3)cccc2c1=O [FLAVOXATE]
Hepatotoxicity (benign tumour) [1]: 0
Hepatotoxicity (severe hepatitis) [2]: 0
Hepatotoxicity (choleostasis) [3]: 0
Hepatotoxicity (cirrhosis) [4]: 0
Hepatotoxicity (association with vascular disease) [5]: 0
Hepatotoxicity (chronic liver disease) [6]: 0
Hepatotoxicity (acute) [7]: 1
Hepatotoxicity (granulomatous hepatitis) [8]: 0
Hepatotoxicity (time to onset) [9]: 2.5 months
Hepatotoxicity (acute) [10]: 0%
Hepatotoxicity (malignant tumour) [11]: 0
Hepatotoxicity (steatosis) [12]: 0
Hepatotoxicity (cytolytic) [13]: 1
Hepatotoxicity (moderate) [14]: 0
Hepatotoxicity (moderate) [15]: 0%

O=C(NCCN1CCN(c2cccc3c2OC[C@H](CO)O3)CC1)c1ccc(F)cc1 [FLESINOXAN]
Hepatotoxicity (benign tumour) [1]: 0
Hepatotoxicity (severe hepatitis) [2]: 0
Hepatotoxicity (choleostasis) [3]: 0
Hepatotoxicity (cirrhosis) [4]: 0
Hepatotoxicity (association with vascular disease) [5]: 0
Hepatotoxicity (chronic liver disease) [6]: 0
Hepatotoxicity (acute) [7]: 0
Hepatotoxicity (granulomatous hepatitis) [8]: 0
Hepatotoxicity (time to onset) [9]: 6 weeks
Hepatotoxicity (acute) [10]: 0%
Hepatotoxicity (malignant tumour) [11]: 0
Hepatotoxicity (steatosis) [12]: 0
Hepatotoxicity (cytolytic) [13]: 0
Hepatotoxicity (moderate) [14]: 1
Hepatotoxicity (moderate) [15]: 12.5%
